According to patent publication US20180110785A1, “METHODS AND COMPOSITIONS FOR AMELIORATING SYMPTOMS ASSOCIATED WITH CHROMOSOMAL ABNORMALITIES” (priority 2014, published 2018):
“And” between values parts separate entries of the source, which are not always exact repeats. Equal values may be shown once. “Also recorded” adds a separate entry of the source. Read-outs that look alike come from different tables or passages of the source.

Assays:
[1] = tested on: patients with taste dysfunction; assay: Gustometry (DT, RT, ME for four tastants) before and after theophylline (Example 3)
[2] = tested on: Sonic hedgehog (SHH) in nasal mucus; assay: Sonic hedgehog in nasal mucus of hyposmic patients after oral theophylline, spectrophotometric ELISA; format: in vivo, human
[3] = tested on: Sonic hedgehog (Shh) in parotid saliva; assay: Saliva sonic hedgehog in patients with taste dysfunction after oral theophylline (Example 3), ELISA; format: in vivo, human
[4] = tested on: patients with smell loss (hyposmia); assay: Smell function (olfactometry, subjective) in hyposmic patients after oral theophylline; format: in vivo, human
[5] = tested on: patients with smell loss (hyposmia); details: prior hyposmic patients treated with oral theophylline (earlier studies); cited from earlier work
[6] = tested on: Sonic hedgehog (Shh) in parotid saliva; assay: Sonic hedgehog in parotid saliva of patients with taste dysfunction after oral theophylline (Example 2), ELISA; format: in vivo, human; details: for saliva sonic hedgehog after treatment with oral theophylline: mean ± SEM
[7] = tested on: patients with taste dysfunction; assay: Subjective taste acuity and flavor perception in hypogeusic patients after oral theophylline (Example 2); format: in vivo, human; details: for flavor perception, degree of improvement / taste acuity, degree of improvement: mean ± SEM
Protocol: Shh was measured in parotid saliva of both normal subjects and in patients with taste dysfunction of multiple etiologies by use of a sensitive spectrophotometric ELISA assay. Taste dysfunction was defined clinically by both subjective changes of taste acuity and flavor perception and by impaired gustometry. Patients were treated with oral theophylline 200-800 mg daily for 2-10 months with saliva Shh and taste function measured at intervals of 2-8 months.
Subjective statements of taste acuity loss and loss of flavor perception were quantitated by use of a scale from 0-100 with 100 reflecting total loss of taste acuity or flavor perception, 0 reflecting no loss and a number between 0-100 reflecting appropriate degree of loss. […] Mean±SEM of loss degree was measured among all patients and each pathology initiating taste dysfunction.
Saliva Shh and measurements of taste function by use of subjective responses of acuity and flavor perception and in olfactometry was measured at intervals of 2-6 months in these patients.

[8] = patients with taste dysfunction
[9] = theophylline treated (81), mean ± SEM

Cn1c(=O)c2[nH]cnc2n(C)c1=O [Theophylline, theophylline]
taste / gustometric function after theophylline [1, 8]: improved subjectively in taste function; also recorded: improved gustometric functions of treated patients
HCl DT [1, 9]: 3.6 ± 0.2
HCl ME [1, 9]: 54 ± 5
HCl RT [1, 9]: 3.7 ± 0.3
NaCl DT (detection threshold) [1, 9]: 3.4 ± 0.2
NaCl ME (magnitude estimation) [1, 9]: 58 ± 5
NaCl RT (recognition threshold) [1, 9]: 3.6 ± 0.2
sucrose DT [1, 9]: 3.3 ± 0.2
sucrose ME [1, 9]: 49 ± 5
sucrose RT [1, 9]: 3.6 ± 0.2
urea DT [1, 9]: 3.9 ± 0.3
urea ME [1, 9]: 54 ± 5
urea RT [1, 9]: 3.9 ± 0.3
sonic hedgehog concentration in nasal mucus, treatment with oral theophylline ([2]; PIHH patients (10), mean ± SEM): 70735 ± 5751^a,a1 (10) pg/ml
sonic hedgehog concentration in nasal mucus, treatment with oral theophylline ([2]; all hyposmic patients (30 in Table 3, 31 in Table 4), mean ± SEM): 49191 ± 1710^c,a1 (30) pg/ml and 49191 ± 1710^a (31) pg/ml
sonic hedgehog concentration in nasal mucus, treatment with oral theophylline ([2]; allergic rhinitis patients (11), mean ± SEM): 24460 ± 2610^a,a1 (11) pg/ml
sonic hedgehog concentration in nasal mucus, treatment with oral theophylline ([2]; congenital smell loss patients (9), mean ± SEM): 3825 ± 474^a,a1 (9) pg/ml
sonic hedgehog concentration in nasal mucus, treatment with oral theophylline ([2]; hyposmic men (17), oral theophylline 400-800 mg daily for 2-10 months, mean ± SEM): 47952 ± 3085^a,a1 (17) pg/ml
sonic hedgehog concentration in nasal mucus, treatment with oral theophylline ([2]; hyposmic women (13), oral theophylline 400-800 mg daily for 2-10 months, mean ± SEM): 3859 ± 303^a,a1 (13) pg/ml
increase of nasal mucus SHH over the untreated state ([2]; men, oral theophylline): 320 times
increase of nasal mucus SHH over the untreated state ([2]; patient post anesthesia, oral theophylline): 48 times
increase of nasal mucus SHH over the untreated state ([2]; patients with PIHH, oral theophylline): 46 times
increase of nasal mucus SHH over the untreated state ([2]; patients with allergic rhinitis, oral theophylline): over 719 times
increase of nasal mucus SHH over the untreated state ([2]; patients with congenital smell loss, oral theophylline): over 21 times
SHH levels in nasal mucus versus untreated state ([2]; patients with hyposmia, oral theophylline): significantly increased SHH levels in nasal mucus
sonic hedgehog concentration in nasal mucus, treatment with oral theophylline ([2]; post general anesthesia patient (1)): 57 (1) pg/ml
increase of nasal mucus SHH over the untreated state ([2]; women, oral theophylline): 17 times
saliva sonic hedgehog after oral theophylline ([3]; PIHH (27), mean ± SEM): 210 ± 12 pmol/mL
saliva sonic hedgehog after oral theophylline ([3]; allergic rhinitis (26), mean ± SEM): 212 ± 14^+ pmol/ml
saliva sonic hedgehog after oral theophylline ([3]; anesthesia induced (2)): 151 pmol/mL
saliva sonic hedgehog after oral theophylline ([3]; congenital (10), mean ± SEM): 132 ± 23 pmol/mL
saliva sonic hedgehog after oral theophylline ([3]; head injury (14), mean ± SEM): 115 ± 15 pmol/mL
increase of saliva Shh levels by theophylline [3, 8]: ~2 fold
saliva sonic hedgehog after oral theophylline ([3]; post radiation (1)): 145 pmol/mL
saliva sonic hedgehog ([3]; theophylline treated patients (81), mean ± SEM): 102 ± 10 pmol/mL
smell improvement, patient number ([4]; PIHH (10)): 8
smell improvement, percent of patients ([4]; PIHH (10)): 80%
smell improvement, patient number ([4]; all treated patients (31), oral theophylline): 19
smell improvement, percent of patients ([4]; all treated patients, oral theophylline): 60% and 61%
smell improvement, patient number ([4]; allergic rhinitis (11)): 5
smell improvement, percent of patients ([4]; allergic rhinitis (11)): 45%
smell improvement, patient number ([4]; congenital (9)): 5
smell improvement, percent of patients ([4]; congenital (9)): 56%
smell improvement, patient number ([4]; post general anesthesia (1)): 1
smell improvement, percent of patients ([4]; post general anesthesia (1)): 100%
smell improvement, percent of patients [5]: over 50%
saliva sonic hedgehog after treatment with oral theophylline ([6]; hypogeusic patients after treatment (66), 200-1000 mg, 2-10 months): 199 ± 20 pmol/mL
saliva sonic hedgehog after treatment with oral theophylline ([6]; men (61) after treatment): 180 ± 15 pmol/mL
Shh in parotid saliva after oral theophylline [6, 8]: increased saliva Shh; also recorded: increased in parotid saliva to levels above those in normal subjects or in untreated patients
saliva sonic hedgehog after treatment with oral theophylline ([6]; women (58) after treatment): 213 ± 33 pmol/mL
patients with improvement in both subjective taste acuity and flavor perception ([7]; after oral theophylline): about 60%
flavor perception, improvement number ([7]; all patients (79)): 45
flavor perception, percent improved ([7]; all patients (79)): 63%
taste acuity, percent improved ([7]; all patients (79)): 63%
taste acuity, improvement number ([7]; all patients (79), oral theophylline): 45
flavor perception, degree of improvement ([7]; all patients (79)): 24 ± 4%
taste acuity, degree of improvement ([7]; all patients (79)): 28 ± 4^+ %
flavor perception, improvement number ([7]; men (38)): 22
flavor perception, percent improved ([7]; men (38)): 58%
taste acuity, improvement number ([7]; men (38)): 21
taste acuity, percent improved ([7]; men (38)): 55%
flavor perception, degree of improvement ([7]; men (38)): 18 ± 4%
taste acuity, degree of improvement ([7]; men (38)): 20 ± 5%
taste function after theophylline [7, 8]: improved both subjective taste function and gustometry
flavor perception, improvement number ([7]; women (41)): 23
flavor perception, percent improved ([7]; women (41)): 54%
taste acuity, improvement number ([7]; women (41)): 24
taste acuity, percent improved ([7]; women (41)): 59%
flavor perception, degree of improvement ([7]; women (41)): 36 ± 6%
taste acuity, degree of improvement ([7]; women (41)): 35 ± 6%
